Source: US20150010928A1, “MEANS AND METHODS FOR ASSESSING AN ENDOCRINE DISEASE OR DISORDER” (priority 2012, published 2015)
Marks after values point to notes of the source that are not given here.

Test system: female rats
Assay: Plasma metabolite profiling (GC-MS, LC-MS, SPE-LC-MS) in female rats dosed once daily over 28 days (OECD 407)
Format: in vivo, rat
Design: key to TAG No 07 / Lysophosphatidylcholine (C17:0): ratio of treated group mean to untreated control group mean; key to 5-O-Methylsphingosine (d18:1) / Isopalmitic acid (C16:0) / Valine / Alanine / Ketoleucine / Serine / Lactate / Arginine: ratio of treated group mean to untreated control mean
Settings: high dose; for Isopalmitic acid (C16:0): Table 17a; for Alanine / Arginine / Ketoleucine / Lactate / Proline / Serine / Valine: Table 17b; for 3-O-Methylsphingosine (d18:1) / 5-O-Methylsphingosine (d18:1) / 16-Methylheptadecanoic acid / Arachidonic acid (C20:cis[5,8,11,14]4) / Ceramide (d18:1, C24:1) / Ceramide (d18:1,C24:0) / Cholesterol / Cholesterolester No 01 / Dodecanol / Elaidic acid (C18:trans[9]1) / Galactose, lipid fraction / Glycerol phosphate, lipid fraction / Heptadecanoic acid (C17:0) / Lignoceric acid (C24:0) / Lysophosphatidylcholine (C17:0) / Phosphate, lipid fraction / Phosphatidylcholine (C18:0, C20:3) / Phytosphingosine / Sphingomyelin (d18:1, C16:0) / Sphingomyelin (d18:1,C24:0) / Sphingomyelin (d18:2, C16:0) / Sphingomyelin (d18:2,C18:0) / Stearic acid (C18:0) / TAG No 07 / Tricosanoic acid (C23:0) / alpha-Tocopherol / beta-Sitosterol / erythro-Sphingosine (d18:1) / myo-Inositol, lipid fraction / myo-Inositol-2-phosphate, lipid fraction / threo-Sphingosine (d18:1): Table 13b
Protocol: Each dose group in the studies consisted of five rats per sex. Additional groups of each 5 male and female animals served as controls. […] All animals of the animal population were kept under the same constant temperature (20-24±3° C.) and the same constant humidity (30-70%). The animals of the animal population were fed ad libitum. The food to be used was essentially free of chemical or microbial contaminants. Drinking water was also offered ad libitum. Accordingly, the water was free of chemical and microbial contaminants as laid down in the European Drinking Water Directive 98/83/EG. The illumination period was 12 hours light followed by 12 hours darkness (12 hours light, from 6:00 to 18:00, and 12 hours darkness, from 18:00 to 6:00). […] The test substances (compounds) in the Tables 1 to 17 below were dosed and administered as described in the Table 18.
In the morning of day 7, 14, and 28, blood was taken from the retroorbital venous plexus from fasted anaesthetized animals. From each animal, 1 ml of blood was collected with EDTA as anticoagulant. The samples were centrifuged for generation of plasma. All plasma samples were covered with a N2 atmosphere and then stored at −80° C. until analysis.
For mass spectrometry-based metabolite profiling analyses plasma samples were extracted and a polar and a non-polar (lipid) fraction was obtained. For GC-MS analysis, the non-polar fraction was treated with methanol under acidic conditions to yield the fatty acid methyl esters. Both fractions were further derivatised with O-methyl-hydroxyamine hydrochloride and pyridine to convert Oxogroups to O-methyloximes and subsequently with a silylating agent before analysis. In LC-MS analysis, both fractions were reconstituted in appropriate solvent mixtures. HPLC was performed by gradient elution on reversed phase separation columns. Mass spectrometric detection which allows target and high sensitivity MRM (Multiple Reaction Monitoring) profiling in parallel to a full screen analysis was applied as described in WO2003073464.
Steroids and their metabolites were measured by online SPE-LC-MS (Solid phase extraction-LC-MS).
Following comprehensive analytical validation steps, the data for each analyte were normalized against data from pool samples. These samples were run in parallel through the whole process to account for process variability. The significance of treatment group values specific for sex, treatmentduration and metabolite was determined by comparing means of the treated groups to the means of the respective untreated control groups using WELCH-test and quantified with treatment ratios versus control and p-values.
The identification of the most important biomarkers per toxicity pattern was done by a ranking of the analytes in the tables below. Therefore the metabolic changes in reference treatments of a given pattern (shown in the table) were compared with changes of the same metabolite in other unrelated treatments. […] The maximum absolute value of the respective TVALUE was taken to indicate the most important metabolite for the pattern.

CN(N=O)C(=O)N[C@H]1C(O)O[C@H](CO)[C@@H](O)[C@@H]1O (mixture of isomers) [Streptozotocin]
Isopalmitic acid (C16:0) (f7, female rats): 0.99
Alanine (f7, female rats): 0.79
Arginine (f7, female rats): 0.78
Ketoleucine (f7, female rats): 0.85
Lactate (f7, female rats): 0.77
Proline (f7, female rats): 0.81
Serine (f7, female rats): 0.88
Valine (f7, female rats): 0.77
Isopalmitic acid (C16:0) (f14, female rats): 1.12 *
Alanine (f14, female rats): 0.91
Arginine (f14, female rats): 0.88
Ketoleucine (f14, female rats): 0.9
Lactate (f14, female rats): 0.83
Proline (f14, female rats): 0.83
Serine (f14, female rats): 0.83
Valine (f14, female rats): 0.85
Isopalmitic acid (C16:0) (f28, female rats): 1.3 *
Alanine (f28, female rats): 0.87
Arginine (f28, female rats): 1.03
Ketoleucine (f28, female rats): 0.87
Lactate (f28, female rats): 0.57
Proline (f28, female rats): 0.9
Serine (f28, female rats): 0.98
Valine (f28, female rats): 0.98

C=CCN1C[C@H](C(=O)N(CCCN(C)C)C(=O)NCC)C[C@@H]2c3cccc4[nH]cc(c34)C[C@H]21 [Cabergoline]
3-O-Methylsphingosine (d18:1) (f7): 0.68 *
5-O-Methylsphingosine (d18:1) (f7): 0.66 *
16-Methylheptadecanoic acid (f7): 0.57 *
Arachidonic acid (C20:cis[5,8,11,14]4) (f7): 0.71 *
Ceramide (d18:1, C24:1) (f7): 0.57 *
Ceramide (d18:1,C24:0) (f7): 0.53 *
Cholesterol (f7): 0.72 *
Cholesterolester No 01 (f7): 0.84^
Dodecanol (f7): 0.84 *
Elaidic acid (C18:trans[9]1) (f7): 0.66 *
Galactose, lipid fraction (f7): 0.79^
Glycerol phosphate, lipid fraction (f7): 0.72 *
Heptadecanoic acid (C17:0) (f7): 0.85^
Lignoceric acid (C24:0) (f7): 0.54 *
Lysophosphatidylcholine (C17:0) (f7): 0.83 *
Phosphate, lipid fraction (f7): 0.73 *
Phosphatidylcholine (C18:0, C20:3) (f7): 0.85 *
Phytosphingosine (f7): 0.64 *
Sphingomyelin (d18:1, C16:0) (f7): 0.94^
Sphingomyelin (d18:1,C24:0) (f7): 0.84 *
Sphingomyelin (d18:2, C16:0) (f7): 0.67 *
Sphingomyelin (d18:2,C18:0) (f7): 0.89 *
Stearic acid (C18:0) (f7): 0.79 *
TAG No 07 (f7): 0.91^
Tricosanoic acid (C23:0) (f7): 0.71 *
alpha-Tocopherol (f7): 0.82^
beta-Sitosterol (f7): 0.46 *
erythro-Sphingosine (d18:1) (f7): 0.66 *
myo-Inositol, lipid fraction (f7): 0.87 *
myo-Inositol-2-phosphate, lipid fraction (f7): 0.61 *
threo-Sphingosine (d18:1) (f7): 0.75 *
3-O-Methylsphingosine (d18:1) (f14): 0.36 *
5-O-Methylsphingosine (d18:1) (f14): 0.34 *
16-Methylheptadecanoic acid (f14): 0.59 *
Arachidonic acid (C20:cis[5,8,11,14]4) (f14): 0.32 *
Ceramide (d18:1, C24:1) (f14): 0.6 *
Ceramide (d18:1,C24:0) (f14): 0.57 *
Cholesterol (f14): 0.36 *
Cholesterolester No 01 (f14): 0.79 *
Dodecanol (f14): 0.44 *
Elaidic acid (C18:trans[9]1) (f14): 0.5 *
Galactose, lipid fraction (f14): 0.48 *
Glycerol phosphate, lipid fraction (f14): 0.34 *
Heptadecanoic acid (C17:0) (f14): 0.61 *
Lignoceric acid (C24:0) (f14): 0.33 *
Lysophosphatidylcholine (C17:0) (f14): 0.72 *
Phosphate, lipid fraction (f14): 0.57 *
Phosphatidylcholine (C18:0, C20:3) (f14): 0.72 *
Phytosphingosine (f14): 0.55 *
Sphingomyelin (d18:1, C16:0) (f14): 0.79 *
Sphingomyelin (d18:1,C24:0) (f14): 0.62 *
Sphingomyelin (d18:2, C16:0) (f14): 0.58 *
Sphingomyelin (d18:2,C18:0) (f14): 0.67 *
Stearic acid (C18:0) (f14): 0.42 *
TAG No 07 (f14): 0.73 *
Tricosanoic acid (C23:0) (f14): 0.55 *
alpha-Tocopherol (f14): 0.4 *
beta-Sitosterol (f14): 0.3 *
erythro-Sphingosine (d18:1) (f14): 0.37 *
myo-Inositol, lipid fraction (f14): 0.48 *
myo-Inositol-2-phosphate, lipid fraction (f14): 0.31 *
threo-Sphingosine (d18:1) (f14): 0.44 *
3-O-Methylsphingosine (d18:1) (f28): 0.11 *
5-O-Methylsphingosine (d18:1) (f28): 0.13 *
16-Methylheptadecanoic acid (f28): 0.28 *
Arachidonic acid (C20:cis[5,8,11,14]4) (f28): 0.16 *
Ceramide (d18:1, C24:1) (f28): 0.39 *
Ceramide (d18:1,C24:0) (f28): 0.36 *
Cholesterol (f28): 0.16 *
Cholesterolester No 01 (f28): 0.56 *
Dodecanol (f28): 0.27 *
Elaidic acid (C18:trans[9]1) (f28): 0.33 *
Galactose, lipid fraction (f28): 0.24 *
Glycerol phosphate, lipid fraction (f28): 0.19 *
Heptadecanoic acid (C17:0) (f28): 0.47 *
Lignoceric acid (C24:0) (f28): 0.15 *
Lysophosphatidylcholine (C17:0) (f28): 0.57 *
Phosphate, lipid fraction (f28): 0.36 *
Phosphatidylcholine (C18:0, C20:3) (f28): 0.59 *
Phytosphingosine (f28): 0.34 *
Sphingomyelin (d18:1, C16:0) (f28): 0.51 *
Sphingomyelin (d18:1,C24:0) (f28): 0.36 *
Sphingomyelin (d18:2, C16:0) (f28): 0.33 *
Sphingomyelin (d18:2,C18:0) (f28): 0.3 *
Stearic acid (C18:0) (f28): 0.28 *
TAG No 07 (f28): 0.4 *
Tricosanoic acid (C23:0) (f28): 0.23 *
alpha-Tocopherol (f28): 0.16 *
beta-Sitosterol (f28): 0.13 *
erythro-Sphingosine (d18:1) (f28): 0.13 *
myo-Inositol, lipid fraction (f28): 0.23 *
myo-Inositol-2-phosphate, lipid fraction (f28): 0.08 *
threo-Sphingosine (d18:1) (f28): 0.24 *

CCOC(=O)C(C)(C)Oc1ccc(Cl)cc1 [Clofibrate]
Isopalmitic acid (C16:0) (f7, female rats): 0.83 *
Alanine (f7, female rats): 0.63
Arginine (f7, female rats): 0.74
Ketoleucine (f7, female rats): 1.04
Lactate (f7, female rats): 1.22
Proline (f7, female rats): 0.81
Serine (f7, female rats): 0.85
Valine (f7, female rats): 0.91
Isopalmitic acid (C16:0) (f14, female rats): 0.84
Alanine (f14, female rats): 0.72
Arginine (f14, female rats): 0.93
Ketoleucine (f14, female rats): 0.94
Lactate (f14, female rats): 0.66
Proline (f14, female rats): 0.88
Serine (f14, female rats): 0.98
Valine (f14, female rats): 0.94
Isopalmitic acid (C16:0) (f28, female rats): 1.53 *
Alanine (f28, female rats): 0.84
Arginine (f28, female rats): 0.92
Ketoleucine (f28, female rats): 0.88
Lactate (f28, female rats): 0.83
Proline (f28, female rats): 0.85
Serine (f28, female rats): 1.03
Valine (f28, female rats): 1.14
